# Measurements from patent publication US8129558B2, “Pesticide naphthyloxy substituted phenylamidine derivatives” (Bayer Cropscience AG, priority 2005, dated 2012).
# Test system: not listed separately
# Assay: logP determination by HPLC on reversed-phase column (C18), EEC Directive 79/831 Annex V.A8
# Assay type: physicochemical
# Conditions: C18, 40° C., 0.1% aqueous formic acid and acetonitrile
# Method: Calibration was carried out using unbranched alkan-2-ones (comprising 3 to 16 carbon atoms) with known logP values (determination of the logP values by the retention times using linear interpolation between two successive alkanones).
row,Structure (SMILES),logPa
1,CCN(C)C=Nc1cc(C)c(Oc2cccc3ccccc23)cc1C [Compound 32],2.43
2,Cc1cc(Oc2ccc3ccccc3c2)c(C)cc1N=CN1CCNCC1 [Compound 22],1.55
3,Cc1cc(Oc2ccc3ccccc3c2)c(C)cc1N=CN1CCOCC1 [Compound 21],2.21
4,CCCN(C)C=Nc1cc(C)c(Oc2ccc3cc(C#N)ccc3c2)cc1C [Compound 10],2.23
5,Cc1cc(Oc2ccc3ccccc3c2)c(C)cc1N=CN1CCCC1 [Compound 26],2.33
6,CCN(C)C=Nc1cc(C)c(Oc2ccc3ccccc3c2)cc1C.O=C(O)c1ccccc1 [Compound 36],2.44
7,CCCN(C)C=Nc1cc(C)c(Oc2ccc3cc(C(=NOC)c4ccccc4)ccc3c2)cc1C [Compound 29],3.14
8,CCN(C)C=Nc1cc(C)c(Oc2ccc3cc(C(=NOC)c4ccccc4)ccc3c2)cc1C [Compound 28],3.05
9,CCCCNc1ccc2ccc(Oc3cc(C)c(N=CN(C)C(C)C)cc3C)cc2c1 [Compound 20],2.91
10,CCCN(C)C=Nc1cc(C)c(Oc2ccc3cc(C(=O)c4ccccc4)ccc3c2)cc1C [Compound 15],2.77
11,CCN(C)C=Nc1cc(C)c(Oc2ccc3ccc(OC)cc3c2)cc1C [Compound 17],2.44
12,Cc1cc(Oc2ccc3cc(C(=O)c4ccccc4)ccc3c2)c(C)cc1N=CN(C)C(C)C [Compound 13],2.75
13,Cc1cc(Oc2ccc3ccccc3c2)c(C)cc1N=CN1CCN(C)CC1 [Compound 23],1.64

# Results, then the compound that gave them:
row,logPa,Structure (SMILES)
1,2.25,CCN(C)C=Nc1cc(C)c(Oc2ccc3ccccc3c2)cc1C.O=C(O)C(=O)O [Compound 35]
2,2.91,CCCCNc1ccc2ccc(Oc3cc(C)c(N=CN(C)CCC)cc3C)cc2c1 [Compound 25]
3,2.61,CCCN(C)C=Nc1cc(C)c(Oc2ccc3ccc(OC)cc3c2)cc1C [Compound 18]
4,1.75,Cc1cc(Oc2ccc3cc(S(=O)(=O)NCCO)ccc3c2)c(C)cc1N=CN(C)C(C)C [Compound 31]
5,2.92,Cc1cc(Oc2ccc3cc(Br)ccc3c2)c(C)cc1N=CN(C)C(C)C [Compound 7]
6,2.56,COc1ccc2ccc(Oc3cc(C)c(N=CN(C)C(C)C)cc3C)cc2c1 [Compound 16]
7,2.89,CCCN(C)C=Nc1cc(C)c(Oc2ccc3cc(Br)ccc3c2)cc1C [Compound 9]
8,1.92,CCN(C)C=Nc1cc(C)c(Oc2ccc3ccc(O)cc3c2)cc1C [Compound 5]
9,2.69,CCN(C)C=Nc1cc(C)c(Oc2ccc3cc(Br)ccc3c2)cc1C [Compound 8]
10,2.20,Cc1cc(Oc2ccc3cc(C#N)ccc3c2)c(C)cc1N=CN(C)C(C)C [Compound 12]
11,2.07,CCN(C)C=Nc1cc(C)c(Oc2ccc3cc(C#N)ccc3c2)cc1C [Compound 11]
12,2.70,COc1ccc2cc(Oc3cc(C)c(N=CN(C)C(C)C)cc3C)ccc2c1 [Compound 30]
13,2.33,CC(=O)O.CCN(C)C=Nc1cc(C)c(Oc2ccc3ccccc3c2)cc1C [Compound 34]
14,3.20,CON=C(c1ccccc1)c1ccc2cc(Oc3cc(C)c(N=CN(C)C(C)C)cc3C)ccc2c1 [Compound 27]
15,2.52,Cc1cc(Oc2ccc3ccccc3c2)c(C)cc1N=CN(C)C(C)C [Compound 4]
16,2.66,CCN(C)C=Nc1cc(C)c(Oc2ccc3cc(C(=O)c4ccccc4)ccc3c2)cc1C [Compound 14]
17,2.62,CCCCNc1ccc2ccc(Oc3cc(C)c(N=CN(C)CC)cc3C)cc2c1 [Compound 24]
18,2.02,Cc1cc(Oc2ccc3ccc(O)cc3c2)c(C)cc1N=CN(C)C(C)C [Compound 6]
19,2.21,CCN(C)C=Nc1cc(C)c(Oc2ccc3cc(C(O)c4ccccc4)ccc3c2)cc1C (racemic) [Compound 19]

# Same assay, conditions: pH 2.3, C18
row,log P (pH 2.3),Structure (SMILES)
1,5.04,"Cc1cc([N+](=O)[O-])c(C)cc1Oc1ccc2ccccc2c1 [4-(naphthyl-2-oxy)-2,5-dimethylnitrobenzene]"
2,2.38,"CCN(C)C=Nc1cc(C)c(Oc2ccc3ccccc3c2)cc1C [Compound 1, N-ethyl-N-methyl-N′-[4-(naphthyl-2-oxy)-2,5-xylyl]form-amidine]"
3,2.51,"Cc1cc(Oc2ccc3ccccc3c2)c(C)cc1N=CN1CCCCC1 [Compound 2, Piperidinyl-N-[4-(naphthyl-2-oxy)-2,5-xylyl]form-amidine]"

# Test system: Myzus persicae
# Assay: Efficacy Example H: in vivo protective test on Myzus persicae (MYZUPE)
# Conditions: Chinese cabbage leaf-disks infected with all instars of green peach aphid, sprayed; concentration and time not given
# Method: in vivo Protective Test on Myzus persicae (MYZUPE)
# (§1) To produce a suitable preparation of active compound, 1 part by weight of active compound is mixed with the stated amount of solvent and emulsifier, and the concentrate is diluted with emulsifier-containing water to the desired concentration.
# Chinese cabbage (Brassica pekinesis) leaf-disks infected with all instars of the green peach aphid (Myzus persicae), are sprayed with a preparation of the active ingredient at the desired concentration.
# After the specified period of time, mortality in % is determined. 100% means that all aphids have been killed; 0% means that none of the aphids have been killed.
row,Structure (SMILES),activity (mortality in %)
1,CCN(C)C=Nc1cc(C)c(Oc2ccc3ccc(OC)cc3c2)cc1C [Compound 17],good activity

# Test system: Heliothis viresens
# Assay: Efficacy Example I: in vivo protective test on Heliothis viresens (HELIVI)
# Design: species or system Heliotis virescens
# Conditions: soybean leaf sections sprayed, infested with eggs of cotton bollworm; concentration and time not given
# Method: in vivo Protective Test on Heliothis viresens (HELIVI)
# as §1
# Soybean (Glycine max.) leaf sections are sprayed with a preparation of the active ingredient of the desired concentration. Once dry, the leaf sections are infested with eggs of cotton bollworm (Heliotis virescens).
# After the specified period of time, mortality in % is determined. 100% means that all eggs have been killed and 0% means that none of the eggs have been killed.
row,Structure (SMILES),activity (mortality in %)
1,CCCN(C)C=Nc1cc(C)c(Oc2ccc3cc(C#N)ccc3c2)cc1C [Compound 10],good activity
2,Cc1cc(Oc2ccc3cc(C(=O)c4ccccc4)ccc3c2)c(C)cc1N=CN(C)C(C)C [Compound 13],good activity
